Assay results: patent publication US6677310B1, “Ring-expanded nucleosides and nucleotides” (Nabi, priority 1999, dated 2004)

What was measured:
SF-539 = experiment: SRB anti-cancer assay, CNS Cancer; assay type: cell-based, human; conditions: SF-539 (CNS Cancer), 48 h
NCI-H522 = assay type: cell-based, human; conditions: NCI-H522 (Non-Small Cell Lung Cancer), 48 h
[1] = target: T1, adenosine deaminase from calf intestinal mucosa (Bos taurus, UniProt P56658); experiment: Adenosine deaminase assay (Example 17); assay type: biochemical; conditions: Lineweaver-Burk plots; with and without preincubation
T1 construct: against adenosine deaminase from calf intestinal mucosa; from tissue; host or cells: calf intestinal mucosa
Description: Inhibition of adenosine deaminase (ADA) by Compound 17-1 and Compound 17-2 (see FIG. 13 for chemical structures; note that structure 1 FIG. 13 is the same as that in figure except that it is written in an anti-conformation in the former) was investigated in vitro against adenosine deaminase from calf intestinal mucosa in a 50 mM phosphate buffer (pH=7.4) at 25° C., by spectro-photometrically monitoring the rate of hydrolysis of substrate adenosine at 265 nm. Stock solutions of the substrate, enzyme, and inhibitors were prepared using a 50 mM phosphate buffer (pH 7.4). The enzyme kinetics was followed by measuring the change in optical density (decrease in absorbance) per minute of the substrate adenosine. By keeping the concentration of the inhibitor constant, and by varying the substrate concentration, a set of kinetic data was obtained. Additional sets of data were generated using different concentrations of the inhibitor. […]
(a) pre-incubation of the enzyme with the inhibitor; here the enzyme (ADA 10 μL) and inhibitor were preincubated for 10 min in a calculated amount of phosphate buffer (50 mM, pH 7.5 ) at 25° C. and the reaction was initiated by the addition of substrate, adenosine, and (b) without preincubation; here the reaction was started by addition of ADA (10 μL) to a mixture of adenosine and inhibitor in the phosphate buffer at 25° C. […]

[2] = target: T2, bacteriophage T7 RNA polymerase (Escherichia phage T7, UniProt P00573); experiment: Transcription catalyzed by T7 RNA polymerase; assay type: biochemical
T2 construct: purchased Promega P2075
Description: To show whether the “fat” nucleotide Compound 15-2 (FNTP) is incorporated into RNA during transcription, experiments were performed using bacteriophage T7 RNA polymerase (RNAP) and a synthetic 42-mer DNA template shown below that is annealed to a 17-nucleotide promoter specific for T7 RNAP. This promoter-template enables the synthesis of 25-mer RNA, and the purine analogue may be incorporated in positions +1, +11, +13, +15, +21, +22, and +23.
Transcription reaction conditions were optimized with the use of ^32P CTP for labeling RNA transcripts. Polyacrylimide gel electrophoresis of the transcription products obtained from the 42-mer template, using 1 mM each of four natural NTPs, reveled a 25-mer RNA as the major product, together with shorter and longer labeled transcripts (FIG. 9, lane 1). The additional bands observed are consistent with the known ability of T7 RNA polymerase to add non-coded residues at the 3′-end of transcripts. (Milligan, J. F., et al., Nuc. Acids Res., 15, 8783-8798, 1987) With the use of 1 mM nucleotide Compound 15-2 (FNTP), the yield of transcription was reduced (lane 2).
With the use of a synthetic 37-mer DNA template, annealed to a 17-nucleotide promoter for T7 RNAP as shown below, a 20 nucleotide-long transcript RNA was obtained when the reaction mixture contained all four NTPs in appropriate concentrations, along with many shorter “abortive” fragments. (Milligan, J. F., et al., Nuc. Acids Res., 15, 8783-8798, 1987). For the reaction with modified nucleotide, typically
the concentration of the appropriate natural nucleotide was reduced. […] (Milligan, J. F., et al., Methods in Enzymol., 180, 51-63, 1989.) In the present experiments, the synthesis of RNA was compared under standard conditions (using 4 NTPs in 0.2 mM concentration each) with the synthesis of RNA by using an additional “fat” nucleoside triphosphate Compound 15-2 (FNTP) in varying (0.05-10 mM) concentrations. The reaction mixtures were incubated at 37° C. for 2 hours, and the products were denatured in a buffer containing urea. The products were separated by 20% polyacrylamide-urea gel electrophoresis and visualized by autoradiography.
Transcription samples (total volume 10 μL contained: 40 mM Tris-HCl pH 8.1 with 6 mM MgCl2, 5 mM dithiothreitol (DTT), 1 mM spermidine, 0.01% Triton-X 100, 50 μg/mL bovine serum albumin, 250 nM synthetic DNA template with a promotor for T7 RNAP, 4 units of T7 RNA polymerase, and 0.2 mM ribonucleoside triphosphates. A single α^32P-labeled NTP was added for labeling (typicallly 1 μL of 10 mCi/mL ). Inhibition assays were monitored with varying concentrations (0.05-10 mM) of nucleotide Compound 15-2. Polyacrylamide gel (20%) electrophoresis was performed on slab gels (18 cm×16 cm, or 35 cm×44 cm) containing 8M urea. […]

[3] = target: T3, guanine deaminase (guanase) from rabbit liver (Oryctolagus cuniculus, UniProt G1T386); experiment: Guanine deaminase assay (Example 17); assay type: biochemical; conditions: Lineweaver-Burk plots
T3 construct: from tissue; host or cells: rabbit liver
Description: Stock solutions of the substrate, enzyme, and inhibitors were prepared using a 50 mM Tris-HCl buffer (pH 7.4). The enzyme kinetics was followed by measuring the change in optical density (decrease in absorbance) per minute of the substrate guanine. By keeping the concentration of the inhibitor constant, and by varying the substrate concentration, a set of kinetic data was obtained. Additional sets of data were generated using different concentrations of the inhibitor. The substrate concentration in each assay ranged 6-20 μM; a total of six different concentrations were employed. The inhibitor concentration used in each assay was 30 or 40 μM. The amount of enzyme used in each assay was 0.0076 unit. The Ki for inhibition assays was computed from Lineweaver-Burk plots. The Lineweaver-Burk plot (1/V vs 1/[S]), as well as the linear regression analysis of kinetic data, were performed using the program Quattro Pro (version 6.01) for Windows.™.

[4] = read-out: LC50 (the source's name)

T2 sequence (P00573 whole entry): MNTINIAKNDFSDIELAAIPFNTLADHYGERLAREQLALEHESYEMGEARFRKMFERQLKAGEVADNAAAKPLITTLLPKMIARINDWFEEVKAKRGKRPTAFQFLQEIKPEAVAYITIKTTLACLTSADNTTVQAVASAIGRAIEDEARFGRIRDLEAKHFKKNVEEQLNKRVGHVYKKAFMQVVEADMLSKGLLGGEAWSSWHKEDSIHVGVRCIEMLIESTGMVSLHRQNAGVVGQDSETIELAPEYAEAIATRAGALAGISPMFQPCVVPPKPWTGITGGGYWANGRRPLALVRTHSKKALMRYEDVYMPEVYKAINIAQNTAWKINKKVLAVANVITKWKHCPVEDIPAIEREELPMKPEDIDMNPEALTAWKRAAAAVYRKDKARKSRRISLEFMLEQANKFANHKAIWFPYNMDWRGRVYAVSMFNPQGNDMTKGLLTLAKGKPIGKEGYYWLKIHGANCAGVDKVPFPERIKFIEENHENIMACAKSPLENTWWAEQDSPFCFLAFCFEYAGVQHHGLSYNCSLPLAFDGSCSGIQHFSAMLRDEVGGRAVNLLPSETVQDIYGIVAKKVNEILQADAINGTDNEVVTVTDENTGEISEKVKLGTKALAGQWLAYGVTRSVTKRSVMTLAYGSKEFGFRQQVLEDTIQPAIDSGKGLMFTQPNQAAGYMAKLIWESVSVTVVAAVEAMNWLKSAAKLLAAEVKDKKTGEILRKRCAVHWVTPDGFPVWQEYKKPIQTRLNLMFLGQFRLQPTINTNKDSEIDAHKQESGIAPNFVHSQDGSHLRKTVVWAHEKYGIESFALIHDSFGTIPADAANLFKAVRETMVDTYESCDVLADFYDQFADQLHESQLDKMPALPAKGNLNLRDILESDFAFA
T3 sequence (G1T386 1-454): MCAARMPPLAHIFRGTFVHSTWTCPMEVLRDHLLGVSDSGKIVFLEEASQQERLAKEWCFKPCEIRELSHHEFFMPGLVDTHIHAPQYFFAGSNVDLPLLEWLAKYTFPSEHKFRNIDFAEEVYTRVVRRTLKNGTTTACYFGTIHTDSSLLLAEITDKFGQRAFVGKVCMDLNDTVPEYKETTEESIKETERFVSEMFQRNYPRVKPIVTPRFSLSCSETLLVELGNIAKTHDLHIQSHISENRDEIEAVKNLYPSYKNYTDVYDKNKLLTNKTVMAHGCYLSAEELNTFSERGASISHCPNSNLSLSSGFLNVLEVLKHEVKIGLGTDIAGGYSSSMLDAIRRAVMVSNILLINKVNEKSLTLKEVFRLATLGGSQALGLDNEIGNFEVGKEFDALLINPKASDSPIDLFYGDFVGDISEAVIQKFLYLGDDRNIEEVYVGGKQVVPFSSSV
T1 sequence (P56658 whole entry): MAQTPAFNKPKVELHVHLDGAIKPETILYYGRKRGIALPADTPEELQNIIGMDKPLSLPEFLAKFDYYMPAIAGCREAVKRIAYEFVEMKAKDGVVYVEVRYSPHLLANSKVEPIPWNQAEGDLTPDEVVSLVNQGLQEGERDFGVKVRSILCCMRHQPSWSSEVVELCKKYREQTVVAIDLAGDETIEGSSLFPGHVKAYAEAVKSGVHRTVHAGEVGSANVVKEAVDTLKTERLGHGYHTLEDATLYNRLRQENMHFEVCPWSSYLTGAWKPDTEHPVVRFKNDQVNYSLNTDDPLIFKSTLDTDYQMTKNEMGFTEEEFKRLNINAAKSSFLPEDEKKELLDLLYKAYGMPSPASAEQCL

Structure (SMILES) | GI50 (SF-539) [µM] | TGI (SF-539) [µM] | CC50 (SF-539; [4]) [µM] | GI50 (NCI-H522) [µM] | TGI (NCI-H522) [µM] | CC50 (NCI-H522; [4]) [µM] | mode of inhibition of adenosine deaminase [1] | incorporation into RNA during transcription (substrate for T7 polymerase) ([2]; 42-mer DNA template) | inhibition of T7 RNA polymerase-catalyzed transcription ([2]; 42-mer and 37-mer DNA templates, 0.05-10 mM) | inhibition of guanine deaminase (guanase), mode [3]
N=c1[nH]c(=O)c2ncn([C@@H]3O[C@H](CO)[C@@H](O)[C@H]3O)c2c(=O)[nH]1 [Compound 14-1, 6-Imino-6H-1-β-D-ribofuranosyl-4,5,7,8-tetrahydroimidazo[4,5-e][1,3]diazepine-4,8-dione] | > 100 | >100 | > 100 | > 100 | >100 | > 100 | – | – | – | –
N=c1nc(N)c2ncn([C@@H]3O[C@H](CO)[C@@H](O)[C@H]3O)c2c(N)n1 [Compound 14-2, 4,8-Diamino-6H-6-imino-1-β-D-ribofuranosylimidazo[4,5-e][1,3]diazepine] | – | – | – | – | – | – | competitive inhibitor | neither incorporation nor inhibition | failed to cause inhibition of the transcription | inactive
